These results are taken from patent US20250052744A1, “Dyes and Uses Thereof” (The University of Liverpool, priority 2021, published 2025).

For one experiment, the system named is Enterococcus faecium. Nature of the experiment: Qualitative dye staining on agarose pads (EVOS M7000). In kind it is cell-based. Further details: key to Relative fluorescent intensity: Very high: If the cells looked twice as big in the fluorescent channel, it was marked as having “very high” relative fluorescent intensity; High: if the cells looked bigger in the fluorescent channel, it was marked as having “high” relative fluorescent intensity; Medium: If the cells looked almost the same size in the fluorescent channel and the bright field, it was marked as having “medium” relative fluorescent intensity; Low: If the cells looked smaller in the fluorescent channel as compared to the brightfield but still the whole cell was visible, it was marked as having “low” relative fluorescent intensity; Negligible: If only a few traces of a cell was visible in the fluorescent channel, it was marked as having “negligible” relative fluorescent intensity. As to conditions: DiSC3(5) 3 μM, SYBR Green I 10×, SYTO 13 3 μM, FM4-64 15 μM.

The test system of the next experiment is Streptococcus agalactiae. The description is as above. In kind it is cell-based. Set-up: key to Relative fluorescent intensity: Very high: If the cells looked twice as big in the fluorescent channel, it was marked as having “very high” relative fluorescent intensity; High: if the cells looked bigger in the fluorescent channel, it was marked as having “high” relative fluorescent intensity; Medium: If the cells looked almost the same size in the fluorescent channel and the bright field, it was marked as having “medium” relative fluorescent intensity; Low: If the cells looked smaller in the fluorescent channel as compared to the brightfield but still the whole cell was visible, it was marked as having “low” relative fluorescent intensity; Negligible: If only a few traces of a cell was visible in the fluorescent channel, it was marked as having “negligible” relative fluorescent intensity. As to conditions: DiSC3(5) 3 μM, SYBR Green I 10×, SYTO 13 3 μM, FM4-64 15 μM.

Setting [1] is: Table 7 commercial strain Enterococcus faecium NCTC 7171.
Setting [2] is: Table 7 commercial strain Enterococcus faecium NCTC 13923.
The mark [3] stands for this setting: Table 8 sample Enterococcus faecium (011).
Where [4] appears, read: Table 8 sample Enterococcus faecium (012).
Setting [5] is: Table 8 sample Enterococcus faecium (013).
Where [6] appears, read: Table 6 thresholds, Streptococcus agalactiae.
The mark [7] stands for this setting: Table 7 commercial strain Streptococcus agalactiae NCTC 11239.
Setting [8] is: Table 8 sample Streptococcus agalactiae (081).
The mark [9] stands for this setting: Table 8 sample Streptococcus agalactiae (082).
[10] abbreviates: Table 8 sample Streptococcus agalactiae (083).

Regarding `CCCN1C(=CC=CC=Cc2sc3ccccc3[n+]2CCC)Sc2ccccc21.[I-]` [DiSC3(5), 3,3′-Dipropylthiadicarbocyanine Iodide], the “Percentage of cells stained” value in the experiment with Enterococcus faecium (setting [1]) is listed as “Almost all”; with Enterococcus faecium (setting [2]), “Almost all”; in the experiment on Enterococcus faecium (setting [3]), “Almost all”; in the experiment on Enterococcus faecium (setting [4]) it was “Almost all”; with Enterococcus faecium (setting [5]) it was “Half”; in the experiment on Streptococcus agalactiae (setting [6]) it was “Almost all”. The “Percentage of cells stained” value in the experiment on Streptococcus agalactiae (setting [7]), in the experiment with Streptococcus agalactiae (setting [8]), in the experiment with Streptococcus agalactiae (setting [9]) and in the experiment on Streptococcus agalactiae (setting [10]) was “Almost all” each time. Also, the Relative fluorescent intensity entry is “Low” in the experiment on Enterococcus faecium (setting [1]); “Low” with Enterococcus faecium (setting [2]); “Low” with Enterococcus faecium (setting [3]); “Low” in the experiment with Enterococcus faecium (setting [4]); “Low” in the experiment on Enterococcus faecium (setting [5]); “low and Low” in the experiment on Streptococcus agalactiae (setting [6]). In addition, the Relative fluorescent intensity result in the experiment with Streptococcus agalactiae (setting [7]), with Streptococcus agalactiae (setting [8]), with Streptococcus agalactiae (setting [9]) and in the experiment with Streptococcus agalactiae (setting [10]) was “Low” each time.

In the case of `CCN(CC)c1ccc(C=CC=CC=Cc2cc[n+](CCC[N+](CC)(CC)CC)cc2)cc1.[Br-].[Br-]` [FM 4-64, N-(3-Triethylammoniumpropyl)-4-(6-(4-(Diethylamino) Phenyl) Hexatrienyl) Pyridinium Dibromide], the “Percentage of cells stained” value was “Half” in the experiment with Enterococcus faecium (setting [1]); “Half” in the experiment with Enterococcus faecium (setting [2]); “Half” in the experiment on Enterococcus faecium (setting [3]); “Half” in the experiment with Enterococcus faecium (setting [4]); “Almost all” in the experiment with Enterococcus faecium (setting [5]); “Almost all” with Streptococcus agalactiae (setting [6]). For the same compound, the “Percentage of cells stained” value with Streptococcus agalactiae (setting [7]), with Streptococcus agalactiae (setting [8]), with Streptococcus agalactiae (setting [9]) and in the experiment on Streptococcus agalactiae (setting [10]) was “Almost all” each time. Further, the Relative fluorescent intensity entry in the experiment on Enterococcus faecium (setting [1]) was “Medium”; with Enterococcus faecium (setting [2]) it was “Medium”; in the experiment on Enterococcus faecium (setting [3]) it was “Medium”; with Enterococcus faecium (setting [4]), “Medium”; in the experiment on Enterococcus faecium (setting [5]) it was “Medium”; in the experiment on Streptococcus agalactiae (setting [6]), “High”. The Relative fluorescent intensity result with Streptococcus agalactiae (setting [7]), in the experiment on Streptococcus agalactiae (setting [8]), in the experiment with Streptococcus agalactiae (setting [9]) and in the experiment on Streptococcus agalactiae (setting [10]) was “High” each time.

Regarding `CCCN(CCCN(C)C)c1cc(/C=C2/Sc3ccccc3N2C)c2ccccc2[n+]1-c1ccccc1` [SYBR Green I, N′,N′-dimethyl-N-[4-[(E)-(3-methyl-1,3-benzothiazol-2-ylidene)methyl]-1-phenylquinolin-1-ium-2-yl]-N-propylpropane-1,3-diamine], the “Percentage of cells stained” value with Enterococcus faecium (setting [1]), in the experiment on Enterococcus faecium (setting [2]), in the experiment with Enterococcus faecium (setting [3]), in the experiment with Enterococcus faecium (setting [4]), in the experiment with Enterococcus faecium (setting [5]) and in the experiment on Streptococcus agalactiae (setting [6]) was “Almost all” each time. Besides, the “Percentage of cells stained” value with Streptococcus agalactiae (setting [7]), in the experiment with Streptococcus agalactiae (setting [8]), in the experiment with Streptococcus agalactiae (setting [9]) and in the experiment on Streptococcus agalactiae (setting [10]) was “Almost all” each time. For the same compound, the Relative fluorescent intensity result in the experiment with Enterococcus faecium (setting [1]) is reported as “High”; with Enterococcus faecium (setting [2]), “High”; in the experiment on Enterococcus faecium (setting [3]) it was “High”; in the experiment with Enterococcus faecium (setting [4]), “High”; in the experiment with Enterococcus faecium (setting [5]), “High”; with Streptococcus agalactiae (setting [6]) it was “very high”. The Relative fluorescent intensity result is “Very high” in the experiment with Streptococcus agalactiae (Table 6 thresholds, Streptococcus agalactiae, listed as SYBR Green); “Very high” with Streptococcus agalactiae (setting [7]); “Very high” in the experiment with Streptococcus agalactiae (setting [8]); “Very high” with Streptococcus agalactiae (setting [9]); “Very high” in the experiment on Streptococcus agalactiae (setting [10]).
